Reference: patent US20200190593A1, “SPLICEOSOME MUTATIONS AND USES THEREOF” (EISAI R&D MANAGEMENT CO., LTD., priority 2017, published 2020)
“Also recorded” adds a separate entry of the source.

Tests used:
HCT116 cells = experiment: CellTiter-Glo growth inhibition, parental HCT116; assay type: cell-based; settings: in HCT116
Protocol: Parental HCT116 cells were obtained from ATCC and cultured in RPMI 1640 medium (Thermo Fisher, GIBCO #11875) supplemented with 10% FBS. Parental Panc0504 cells were obtained from ATCC and cultured in GIBCO RPMI 1640 medium (Thermo Fisher, GIBCO #11875) supplemented with glucose (to 4.5 g/L final), HEPES (10 mM final), sodium pyruvate (1 mM final), human insulin (10 μg/ml final) and 15% FBS. Cell line authentication was achieved by genetic profiling using polymorphic short tandem repeat (STR) loci (ATCC). All cell lines were free of mycoplasma contamination. Lenti-X-293T cells (Clontech Laboratories, Inc. Cat #632180), a cell line for lentiviral packaging, was maintained in Dulbecco's modified Eagle's medium (Thermo Fisher, GIBCO #11965) containing 10% fetal bovine serum and 4 mM L-glutamine. WT PHF5A cDNA was obtained from Genecopoeia and cloned into a pDONR 221 vector (Thermo Fisher). Sequence verified positive clones were cloned into pLenti6.3N5 vector (Thermo Fisher) through LR recombination. Mutagenesis of Y36 and V37 were carried using Agilent Quickchange II kit following manufacturer's recommendation using the PHF5A WT plasmid. All primers used for mutagenesis were designed used the QuikChange Primer Design tool by Agilent. Verified positive clones of PHF5A Y36 or V37 variants were used for lentivirus production using X293T cells. Parental HCT116 cells and Panc0504 cells were then infected with virus containing medium and selected with Blasticidin S (Thermo Fisher) at 10 μg/ml for one week. Engineered cell lines were maintained in the same medium without antibiotics. The following primary antibodies were used at 1:1000 dilution for western blot analysis in LI-COR buffer (LI-COR): α-SF3B1 mouse monoclonal antibody (MBL, D221-3), α-SF3B3 rabbit polyclonal antibody (Protein Tech, 14577-1-AP), α-SF3B4 goat polyclonal antibody (Santa Cruz, 14276), α-SF3B6/p14 rabbit polyclonal antibody (Protein Tech, 12379-1-AP), α-PHF5A rabbit polyclonal antibody (Protein Tech, 15554-1-AP). α-GAPDH rabbit polyclonal antibody (Sigma, G9545) was used at 1:10,000. […]
(§1) For CellTiter-Glo analysis, 500 cells were seeded in each well of a 384-well plate the day before compound addition. […] 72 hours post compound addition; CellTiter-Glo reagent was added to the medium, incubated and assayed on EnVision Multilabel Reader (PerkinElmer). The luminescence value from each treatment sample was normalized to the average value of the respective DMSO control. […] For heatmap summarization of IC50 shifts, IC50 value were extracted from dosage response curves and the fold changes of IC50 values in PHF5A variants expressing lines over that of the WT lines were calculated and plotted using TIBCO Spotfire software. […]

[1] = system: HCT116 resistant clones carrying SF3B1 (R1074H, V1078A/I) or PHF5A Y36C mutations; experiment: CellTiter-Glo growth inhibition profiling of E7107/herboxidiene resistant HCT116 clones; assay type: cell-based; settings: 72 hour CellTiter-Glo, HCT116 resistant clones vs parental
Protocol: 2.5 million HCT116 cells were seeded in each 10 cm dish and treated with indicated dosages of splicing modulators for 2 weeks. Compounds were refreshed every 4 days. When needed, confluent dishes were split 1:3 and cells were allowed to recover overnight without splicing modulator treatment after re-seeding. At the end of the compound selection period, surviving individual clones were picked and transferred to 12-well plates. Individual resistant clones were further expanded without splicing modulator treatment and 1 million cells from each clone were pelleted for genomic DNA extraction using the DNeasy Blood & Tissue Kit from Qiagen. Whole exome sequencing (WXS) libraries were generated by Novogene Corporation using Agilent SureSelect Human All Exon V6 kit and sequenced on Illumina HiSeq platform. 12G raw data were gathered for each sample. WXS reads were then aligned to hg19 by BWA-MEM (Shi et al., Nature biotechnology 33, 661-7 (2015)) and somatic mutations were identified with MuTect2 (Schenone et al., Nature chemical biology 9, 232-40 (2013)) through Sentieon pipeline (Wacker et al., Nature chemical biology 8, 235-7 (2012)) by pairing resistant clone with parental cell lines. As the resistant clones for WXS were selected, the allele frequencies for the mutations which are responsible for the resistance should be high. Non-silent mutations (among the H3 curated spliceosome genes) with allele frequency higher than 0.2 were focused on.
For CellTiter-Glo analysis, 500 cells were seeded in each well of a 384-well plate the day before compound addition. An 11 part serial dilution was used starting with a top final dosage of 10 μM for ten additional doses. DMSO percentage was maintained throughout and a DMSO only control was included. 72 hours post compound addition; CellTiter-Glo reagent was added to the medium, incubated and assayed on EnVision Multilabel Reader (PerkinElmer). The luminescence value from each treatment sample was normalized to the average value of the respective DMSO control. The dosage response curve plots were generated using Graphpad Prism 6 and fit using nonlinear regression analysis and the log (inhibitor) vs. response—Variable slope (four parameters). For heatmap summarization of IC50 shifts, IC50 value were extracted from dosage response curves and the fold changes of IC50 values in PHF5A variants expressing lines over that of the WT lines were calculated and plotted using TIBCO Spotfire software. For IC50s greater than the top dosage, the values were arbitrarily set at 10 μM. Unsupervised clustering analysis was performed in TIBCO Spotfire using the following default parameters: Clustering method: UPGMA; Distance measure: Euclidean; Ordering weight: Average value; Normalization: (None); Empty value replacement: Constant value: 0.

[2] = system: PHF5A Y36C over-expressing PANC0504 cells; experiment: Growth inhibition in PANC0504 cells over-expressing PHF5A Y36C; assay type: cell-based
Protocol: Parental HCT116 cells were obtained from ATCC and cultured in RPMI 1640 medium (Thermo Fisher, GIBCO #11875) supplemented with 10% FBS. Parental Panc0504 cells were obtained from ATCC and cultured in GIBCO RPMI 1640 medium (Thermo Fisher, GIBCO #11875) supplemented with glucose (to 4.5 g/L final), HEPES (10 mM final), sodium pyruvate (1 mM final), human insulin (10 μg/ml final) and 15% FBS. Cell line authentication was achieved by genetic profiling using polymorphic short tandem repeat (STR) loci (ATCC). All cell lines were free of mycoplasma contamination. […]
as §1

[3] = system: MCL1 splicing (ES/IR events) in PHF5A WT expressing HCT116 cells; experiment: Taqman gene expression analysis of MCL1 isoforms, PHF5A WT cells; assay type: cell-based; settings: 4 hour treatment
Protocol: (§2) 8000 cells of indicated genotypes were seeded in each well of 96-well plate and allowed to settle overnight. On the second day, 11 points serial dilution (1:4 fold dilution across) of indicated compound with a top dosage of 10 μM final was added to the culturing medium. 4 hour post compound addition, culturing medium was decanted and washed once with PBS. PBS was then decanted completely from the plate and Lysis buffer (plus DNase I) from TaqMan Gene Expression Cells-to-CT Kit (Thermo Fisher, cat # AM1729) was added according to the manual. After 5 mins incubation at room temperature on the shaker, stop solution was added to each well and incubated for 2 min. Reverse transcription was set up immediately using the Cells-to-CT Kit and cDNAs were used for quantitative real time PCR analysis using Viia7 (Thermo Fisher). Each reaction is multiplexed with a FAM labelled probe targeting specific target gene splicing isoforms and a VIC labelled probe targeted 18S rRNA as loading control. Therefore, the FAM Ct value in each well was first normalized to the VIC Ct value in the same well before further normalization to the FAM/VIC ratio of DMSO treated control samples to calculate fold change over DMSO. Graphs were generated using Graphpad Prism 6, n=2. Taqman gene expression probes used in these assays are: […]

[4] = system: MCL1 splicing (ES/IR events) in PHF5A Y36C expressing HCT116 cells; experiment: Taqman gene expression analysis of MCL1 isoforms, PHF5A Y36C cells; assay type: cell-based; settings: PHF5A-Y36C cells compared to WT, increasing dosage
Protocol: as §2

[5] = system: global splicing in PHF5A WT expressing HCT116 cells; experiment: Whole transcriptome RNA-seq differential splicing, PHF5A WT cells; assay type: cell-based
Protocol: (§3) Either PHF5A WT or Y36C mutant overexpressing cells were treated with either DMSO or E7107 (100 nM and 10 μM) for 6 hours in quintuplicate before lysed in TRIzol reagent (Thermo Fisher). After phase separation, top aqueous phase was further processed using MagMAX™-96 Total RNA Isolation Kit (Thermo Fisher, AM1830) for RNA extraction. RNA quality was assessed using Agilent tapestation with RNA screen tape. RNA-seq libraries were prepared by Beijing Genomic Institute (BGI) and sequenced on Illumina Hiseq 4000 for 6G clean reads per sample. RNA-seq reads were aligned to hg19 by STAR (Dobin et al., Bioinformatics 29, 15-21 (2013)) and raw junction counts generated by STAR were used for calculating percent spliced in (PSI) to quantify splice junction usage relative to all other splice junctions that share the same splice site as described before (Darman et al., Cell reports 13, 1033-45 (2015)). Differential PSI were assessed between a pair of sample groups using moderated t-test defined in limma package (Smyth, Statistical applications in genetics and molecular biology 3, Article3 (2004)) in Bioconductor. The statistical p-values were corrected using the Benjamini-Hochberg procedure and q-values less than or equal to 0.05 were considered statistically significant. Gene IDs associated with significant splicing changes upon E7107 treatment as compared to DMSO in either PHF5A WT or Y36C cells were used for generation of the Venn Diagram using online tool (http://bioinformatics.psb.ugent.be/webtools/Venn/). PHF5A WT or Y36C specific genes identified from the Venn Diagram analysis were then subject to Gene Set Enrichment Analysis (GSEA) (http://software.broadinstitute.org/gsea/msigdb/annotate.jsp) using the Kyoto Encyclopedia of Genes and Genomes (KEGG) pathway database.
The number of reads which cover the splice junction which excludes a given cassette exon (exon skipping reads) were compared with both the number of spliced reads which share its 3′ splice site yet have an alternative 5′ splice site bordering the cassette exon (exon inclusion reads) and the number of reads which cross the exon-intron boundary at that same 3′ splice site (intron retention reads.) These counts were summed and their fractions from the percent spliced in (PSI) for the exon skipping event, the exon inclusion event, and the intron retention event, respectively, at that locus. The PSI for all significant exon skipping events derived from the comparison between 100 nM E7107 treatment in PHF5A Y36C cells and the respective DMSO controls (3883 events) and the PSI for the intron retention junction at the same locus were plotted. For all other treatments, the PSI of the exon skipping junction and the intron retention junction for each locus were plotted in the same order. PSI is averaged over samples in quintuplicate.

[6] = system: global splicing in PHF5A Y36C expressing HCT116 cells; experiment: Whole transcriptome RNA-seq differential splicing, PHF5A Y36C cells; assay type: cell-based
Protocol: as §3, with “Gene IDs associated with significant splicing changes upon E7107 treatment as compared to DMSO in either PHF5A WT or Y36C cells were used for generation of the Venn Diagram using online tool (http://bioinformatics.psb.ugent.be/webtools/Venn/). PHF5A WT or Y36C specific genes identified from the Venn Diagram analysis were then subject to Gene Set Enrichment Analysis (GSEA) (http://software.broadinstitute.org/gsea/msigdb/annotate.jsp) using the Kyoto Encyclopedia of Genes and Genomes (KEGG) pathway database.” left out

SF3B1 R1074H = biological target: T1, SF3B1 R1074H (Homo sapiens, UniProt O75533+Q7RTV0, R1074H); settings: Yokoi et al. 2011; cited from earlier work
T1 construct: endogenous in cells; WiDr clones in the cited Yokoi et al. work

Molecule | GI50 (HCT116 cells; Homo sapiens, HCT-116) [nM] | resistance conferred by mutations in resistant clones (growth inhibition profiling) [1] | resistant phenotype upon PHF5A Y36C over-expression [2] | dose-dependent induction of MCL1 ES and IR events [3] | other results
CC[C@H](O)[C@@H](C)[C@H]1O[C@@H]1C[C@@](C)(O)/C=C/C=C(\C)C1OC(=O)C[C@H](O)CC[C@@](C)(O)[C@@H](OC(=O)N2CCN(C3CCCCCC3)CC2)/C=C/[C@@H]1C (stereo partly drawn) [Compound E7107] | 1.5 | SF3B1-R1074H mutation conferred the most robust resistance | partial resistant phenotype | “earlier” induction of MCL1 ES events than IR events at lower doses | MCL1-S production (ES events) [4]: enhanced to a higher level; number of introns with induced aberrant splicing ([5]; E7107, FIG. 4A): approximately 20,000; number of the 3883 Y36C related ES junctions showing reduced ES PSI and increased IR PSI in WT cells ([5]; E7107 treated WT vs Y36C cells): 2470; share of Y36C related ES junctions showing reduced ES PSI and increased IR PSI in WT cells ([5]; E7107 treated WT vs Y36C cells): ~64%; differential splicing events vs DMSO ([5]; PHF5A WT cells, 100 nM E7107): intron-retention (IR) events were predominant; MCL1 isoform events in RNA-seq sashimi plots ([5]; PHF5A WT cells, E7107 treatment): IR was the dominant event observed; differential splicing events vs DMSO ([6]; 100 nM E7107): the overall amount of IR events and their average fold change were greatly reduced; also recorded: the number of compound induced exon-skipping (ES) events was increased; MCL1 isoform events in RNA-seq sashimi plots ([6]; E7107 treatment): mainly ES events were observed yielding the MCL1-S form; effect of SF3B1 R1074H substitution on compound activity (SF3B1 R1074H): almost completely abolishes the splicing-modulating and anti-proliferative effects
CC(C)C[C@H](NC(=O)[C@H](Cc1ccccc1)NC(=O)c1cnccn1)B(O)O [bortezomib] | – | did not affect the cell lines sensitivity | not | – | –
CO[C@H]([C@@H](C)[C@H]1O[C@]1(C)C[C@H](C)/C=C/C=C(\C)[C@H]1O[C@@H](CC(=O)O)CC[C@@H]1C)[C@@H](C)O [herboxidiene] | 7.6 | PHF5A-Y36C mutation rendered more resistance | – | even more pronounced effect | –
CO[C@]1(C)C[C@@]2(CO2)[C@H](O)[C@@H](/C=C/C(C)=C/C[C@@H]2O[C@H](C)[C@H](NC(=O)/C=C\[C@H](C)OC(C)=O)C[C@@H]2C)O1 [spliceostatin A] | – | SF3B1-R1074H mutation also conferred better resistance; also recorded: show resistance to the Y36C clone | – | – | GI50 (HCT116 cells): 0.76 nM
CNC(=O)O[C@@H](C)/C=C\C(=O)N[C@H]1CC[C@@H](C/C=C(C)/C=C/[C@@H]2C[C@]3(CO3)CC(C)(C)O2)CC1 [sudemycin D6] | 149 | SF3B1-R1074H mutation also conferred better resistance | – | IR events were not observed | –
sudemycin D6 | – | show resistance to the Y36C clone | – | – | –
